Results taken from patent publication US20040191172A1, “Preventive or therapeutic agents for dermatitis or alopecia, evaluation method of the agents, and transgenic mouse” (priority 2003, published 2004).

Tested on: K5/IL-18 Tg (+) mice
Experiment: Suppression of spontaneous dermatitis in K5/IL-18 transgenic (Tg (+)) mice, appearance and HE histopathology of back skin
Assay type: in vivo
Settings: 1% (10 mg/mL) applied to back skin for consecutive seven days
From the text: The spontaneous dermatitis (A) refers to an inflammation that reaches its peak approximately on the 8th to 12th day after birth of an IL-18-introduced mouse and disappears after about four weeks and that has been identified by the inventors of the present invention for the first time. Pathologically speaking, in this inflammation, acanthosis (epidermal thickening) , hyperkeratosis, and inflammatory cell infiltrations that neutrophilic leukocytes are contained in dermis can be observed in dermal tissue, a slight sponge state is present in the epidermal base, and abscess formation in the cuticle due to epidermal neutrophilic infiltrations is observed (FIG. 3).
The evaluation method of the present invention can be performed as a method for screening agents for preventing/treating autoimmune dermatitis. The screening can be performed, for example, by the procedures of administrating an agent to be tested in either stage, before or after the occurrence of the peak of spontaneous dermatitis, and comparing mice without administration (control) in terms of the presence or the absence of peak occurrence, the size of the peak, the speed of peak disappearance or the like.
Next, the agent of preventing/treating dermatitis of the present invention will be described more specifically by way of examples. […]

C[C@@H]1C[C@H]2[C@@H]3CCC4=CC(=O)C=C[C@]4(C)[C@@]3(F)[C@@H](O)C[C@]2(C)[C@@]1(O)C(=O)CO [dexamethasone]
death from side effects (share of treated group): about a half
